Target: T1, Cathepsin G (Homo sapiens, UniProt P08311)
T1 sequence (P08311 whole entry): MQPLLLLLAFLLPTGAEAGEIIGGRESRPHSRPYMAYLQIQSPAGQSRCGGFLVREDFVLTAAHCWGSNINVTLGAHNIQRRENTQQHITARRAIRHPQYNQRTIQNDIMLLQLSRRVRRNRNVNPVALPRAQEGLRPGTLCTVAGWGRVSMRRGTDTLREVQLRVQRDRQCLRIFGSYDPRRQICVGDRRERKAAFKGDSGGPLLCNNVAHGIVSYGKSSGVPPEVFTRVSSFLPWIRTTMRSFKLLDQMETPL
Experiment: IC50 of CTSG protease blockers – biochemical, confirmation, dose response (AID 832)

IC50 | Structure (SMILES)
2.52 µM | COc1ccc2c(c1)CCc1c(C(=O)NCc3ccc(F)cc3)noc1-2 [MLS000116425]
2.77 µM | O=c1oc(-c2cccnc2)nc2ccccc12 [2-(3-pyridinyl)-3,1-benzoxazin-4-one]
> 50 µM | O=C1CS/C(=N\c2ccc(O)cc2)N1c1ccc(O)cc1 [MLS000027731]
1.58 µM | COc1ccc2c(c1)CCc1c(C(=O)NCc3ccco3)noc1-2 [MLS000087436]
2.91 µM | COc1ccc2c(c1)CCc1c(C(=O)Nc3ccn(Cc4ccc(C)cc4)n3)noc1-2 [7-methoxy-N-[1-(4-methylbenzyl)-1H-pyrazol-3-yl]-4,5-dihydronaphtho[2,1-d]isoxazole-3-carboxamide]
> 50 µM | COc1cc(NC(=O)c2csc3c2CCCC3)ncn1 [MLS000093387]
> 50 µM | COc1ccc(C2C(C(=O)c3cccs3)C(=O)C(=O)N2c2nncs2)cc1 (stereo unspecified)
> 50 µM | COc1ccc(C(=O)n2nc(-c3ccc(C)cc3)nc2N)cc1OC
> 50 µM | Cc1nc2scc(-c3cccs3)c2c(=O)o1 [2-methyl-5-(2-thienyl)thieno[2,3-d][1,3]oxazin-4-one]
4.33 µM | O=C(c1csc2ccccc12)n1cccn1 [MLS000065687]
> 50 µM | COc1ccc(CNC(=O)c2cc(-c3ccc(OC)c(OC)c3)on2)cc1 [5-(3,4-dimethoxyphenyl)-N-(4-methoxybenzyl)isoxazole-3-carboxamide]
> 50 µM | O=C(c1noc2c1CCc1ccccc1-2)N1CCOCC1 [3-(morpholin-4-ylcarbonyl)-4,5-dihydronaphtho[2,1-d]isoxazole]
3.73 µM | O=C(NCCCn1ccnc1)c1noc2c1CCc1ccccc1-2 [N-[3-(1-imidazolyl)propyl]-4,5-dihydrobenzo[g][1,2]benzoxazole-3-carboxamide]
18.6 µM | Cc1nn(Cc2ccc(Cl)c(Cl)c2)c(C)c1NC(=O)c1cc(-c2ccc3c(c2)OCO3)on1 [5-(1,3-benzodioxol-5-yl)-N-[1-(3,4-dichlorobenzyl)-3,5-dimethyl-1H-pyrazol-4-yl]isoxazole-3-carboxamide]
21.8 µM | COc1ccccc1-c1cc(C(=O)NC(C)c2ccccc2)no1 (stereo unspecified) [5-(2-methoxyphenyl)-N-(1-phenylethyl)-1,2-oxazole-3-carboxamide]
3.88 µM | Cc1cc(C)cc(C(=O)n2cnnc2N)c1
4.43 µM | COc1ccc(C(=O)n2nc(-c3ccccc3)nc2N)cc1OC [MLS000099650]
1.95 µM | CC(C)(C)OC(=O)N[C@@H](Cc1ccccc1)c1nnc(S(=O)(=O)Cc2ccccc2)o1 [SMR000047857]
21.6 µM | CCOC(=O)c1ccc(/N=C/c2nc(-c3ccccc3)oc2OC(C)=O)cc1 [MLS000027596]
6.45 µM | Cc1ccccc1Cn1nc(C)c(NC(=O)c2noc3c2CCc2ccccc2-3)c1C [MLS000116424]
2.26 µM | Cc1cc(OC(=O)c2ccccc2)n(CCC#N)n1 [[2-(2-cyanoethyl)-5-methyl-pyrazol-3-yl] benzoate]
22.6 µM | Cc1ccccc1CS(=O)(=O)c1nnc([C@H](CC(C)C)NC(=O)OC(C)(C)C)o1 [SMR000044673]

IC50 | Structure (SMILES)
1.31 µM | COc1ccc(C(=O)n2cnc(N)n2)cc1 [(3-amino-1,2,4-triazol-1-yl)-(4-methoxyphenyl)methanone]
5.82 µM | COc1ccc2c(c1)CCc1c(C(=O)NCCN3CCOCC3)noc1-2 [7-methoxy-N-(2-morpholin-4-ylethyl)-4,5-dihydrobenzo[g][1,2]benzoxazole-3-carboxamide]
> 50 µM | O=C(CCSc1nccn1Cc1ccccc1)N1CCOCC1 [1-(4-morpholinyl)-3-[[1-(phenylmethyl)-2-imidazolyl]thio]-1-propanone]
> 50 µM | Cc1cc(NC(=O)c2noc3c2CCc2ccccc2-3)n(-c2ccccc2)n1 [MLS000116423]
32.2 µM | COc1ccc(C(=O)n2nc(-c3ccc(Cl)cc3)nc2N)cc1OC [SMR000074176]
1.47 µM | COc1ccc2c(c1)CCc1c(C(=O)Nc3cc(C)n(Cc4ccc(Cl)cc4)n3)noc1-2 [MLS000087458]
> 50 µM | Cc1cnc(C(=O)Nc2ccccc2-c2ccc(C)o2)cn1 [5-Methyl-pyrazine-2-carboxylic acid [2-(5-methyl-furan-2-yl)-phenyl]-amide]
0.923 µM | CCCC(=O)Nc1ccc(C(=O)n2nnc3ccccc32)cc1 [N-[4-(1H-1,2,3-benzotriazol-1-ylcarbonyl)phenyl]butanamide]
2.48 µM | O=C(NCCc1ccccc1)c1noc2c1CCc1ccccc1-2 [MLS000087424]
2.55 µM | CCCNC(=O)c1noc2c1CCc1ccccc1-2 [MLS000116420]
> 50 µM | CCN1C(=O)c2ccc(-c3nc4ccccc4c(=O)o3)cc2C1=O [2-ethyl-5-(4-keto-3,1-benzoxazin-2-yl)isoindoline-1,3-quinone]
3.86 µM | Cn1cnnc1SCc1ccc(C(=O)n2ncc(C#N)c2N)cc1 [5-amino-1-[4-[(4-methyl-1,2,4-triazol-3-yl)sulfanylmethyl]benzoyl]pyrazole-4-carbonitrile]
18.3 µM | COc1ccc(S(=O)(=O)n2nc(OC(=O)c3ccc(C)cc3)cc2N)cc1 [4-Methyl-benzoic acid 5-amino-1-(4-methoxy-benzenesulfonyl)-1H-pyrazol-3-yl ester]
2.67 µM | CC(C)(C)OC(=O)N[C@@H](Cc1ccccc1)c1nnc(S(=O)(=O)Cc2cccc(F)c2)o1 [tert-butyl N-[(1S)-1-[5-[(3-fluorophenyl)methylsulfonyl]-1,3,4-oxadiazol-2-yl]-2-phenylethyl]carbamate]
9.38 µM | CC(C)[C@H](NC(=O)OC(C)(C)C)c1nnc(S(=O)(=O)Cc2c(F)cccc2Cl)o1 [SMR000044502]
3.43 µM | CCC(=O)Nc1cccc(-c2nc3ccccc3c(=O)o2)c1 [MLS000090237]
> 50 µM | COc1ccc2c(c1)CCc1c(C(=O)N3CCc4ccccc4C3)noc1-2 [3,4-dihydro-1H-isoquinolin-2-yl-(7-methoxy-4,5-dihydrobenz[g]indoxazen-3-yl)methanone]
20.8 µM | COc1ccc(S(=O)(=O)n2nc(OC(=O)c3ccccc3)cc2N)cc1 [Benzoic acid 5-amino-1-(4-methoxy-benzenesulfonyl)-1H-pyrazol-3-yl ester]
41.5 µM | COc1ccc(C(=O)n2ccc(C)n2)cc1Br [(3-bromanyl-4-methoxy-phenyl)-(3-methylpyrazol-1-yl)methanone]
13.3 µM | COc1ccccc1-c1cc(C(=O)NCc2ccccc2)no1 [5-(2-methoxyphenyl)-N-(phenylmethyl)-1,2-oxazole-3-carboxamide]
0.793 µM | O=c1oc(-c2ccco2)nc2ccccc12 [2-Furan-2-yl-benzo[d][1,3]oxazin-4-one]
3.97 µM | C#CCOC(=O)c1ccccc1C(=O)n1nnc2ccccc21

IC50 | Structure (SMILES)
4.05 µM | O=c1oc(-c2cccc(S(=O)(=O)N3CCOCC3)c2)nc2ccccc12 [2-(3-morpholin-4-ylsulfonylphenyl)-3,1-benzoxazin-4-one]
> 50 µM | COc1cc2nc(-c3cccs3)oc(=O)c2cc1OC [6,7-dimethoxy-2-(2-thienyl)-3,1-benzoxazin-4-one]
4.36 µM | COCCNC(=O)c1noc2c1CCc1cc(OC)ccc1-2 [7-methoxy-N-(2-methoxyethyl)-4,5-dihydrobenz[g]indoxazene-3-carboxamide]
0.631 µM | COc1ccc2c(c1)CCc1c(C(=O)NC3CCCCC3)noc1-2 [MLS000087437]
> 50 µM | COc1cccc(-c2cc(C(=O)NCCc3ccccc3)no2)c1 [5-(3-methoxyphenyl)-N-(2-phenylethyl)-1,2-oxazole-3-carboxamide]
33 µM | COc1ccc(OC)c(-c2cc(C(=O)Nc3c(C)nn(Cc4ccccc4)c3C)no2)c1 [5-(2,5-dimethoxyphenyl)-N-[3,5-dimethyl-1-(phenylmethyl)-4-pyrazolyl]-3-isoxazolecarboxamide]
28.4 µM | Nc1nncn1C(=O)c1cccs1 [(3-Amino-[1,2,4]triazol-4-yl)-thiophen-2-yl-methanone]
43.2 µM | COc1ccc(-c2cc(C(=O)NCc3ccc(Cl)cc3)no2)cc1OC [MLS000087122]
9.8 µM | CCSc1ccccc1C(=O)n1nnc2ccccc21
0.957 µM | O=C(c1ccc2c(c1)OCO2)n1nnc2ccccc21
37.9 µM | COc1ccccc1/N=C/c1nc(-c2ccccc2)oc1OC(C)=O [SMR000039734]
10.8 µM | Cc1nn(C(=O)c2ccccc2)c2c1C(=O)CC(C)(C)C2 [SMR000069174]
15.2 µM | O=C(NCc1cccs1)c1cc(-c2cccs2)on1 [5-thien-2-yl-N-(thien-2-ylmethyl)isoxazole-3-carboxamide]
22 µM | COc1ccc(C(=O)n2nc(-c3ccco3)nc2SC)cc1OC [(3,4-dimethoxyphenyl)-[3-(2-furanyl)-5-(methylthio)-1,2,4-triazol-1-yl]methanone]
> 50 µM | CCOC(=O)c1ccc(NC(=O)CS(=O)(=O)c2cn(CC)c3ccccc23)cc1 [4-[[2-(1-ethylindol-3-yl)sulfonylacetyl]amino]benzoic acid ethyl ester]
12 µM | CCOC(=O)c1c(C)n(C(=O)c2ccco2)c(=O)n1C(=O)c1ccco1
4.64 µM | COc1ccc2c(c1)CCc1c(C(=O)Nc3c(C)n(C)n(-c4ccccc4)c3=O)noc1-2 [MLS000087455]
1.39 µM | COc1ccc2c(c1)CCc1c(C(=O)NCc3cccnc3)noc1-2 [7-methoxy-N-(3-pyridinylmethyl)-4,5-dihydrobenzo[g][1,2]benzoxazole-3-carboxamide]
> 50 µM | O=c1[nH]c(CN2CCc3ccccc3C2)nc2ccccc12 [MLS000088906]
23.3 µM | CN1CC2(Cc3c1ccc1ccccc31)C(=O)OC(C)(C)OC2=O [2',2',4-trimethylspiro[1,3-dihydrobenzo[f]quinoline-2,5'-1,3-dioxane]-4',6'-dione]
> 50 µM | Cc1ccc(NC(=O)Cc2nn(C)c(=O)c3ccccc23)cc1F [MLS000047015]
> 50 µM | COc1ccccc1-c1c(C#N)c(SCC(=O)N2CCCC2)nc(C)c1C(N)=O [SMR000061200]

Source: BindingDB's records for doi:10.7270/Q2QF8R8B (Pcmd, 2008)
